The text below walks through data of article PMC10037464, “Chemical Knockdown of Phosphorylated p38 Mitogen-Activated Protein Kinase (MAPK) as a Novel Approach for the Treatment of Alzheimer′s Disease” (ACS Central Science, 2023).

The DC50 is the concentration giving 50% degradation. High values mean degradation only at high concentration, low ones degradation at low concentration.

In assay [1] the target is T1, phosphorylated p38 MAPK (p-p38) (Homo sapiens, UniProt Q16539).
T1 construct: gene MAPK14; phosphorylated p38 in HEK293T cells
The experiment in a line: CRBN- and proteasome-dependent degradation in cells (immunoblot DC50). The format is cell-based. In general terms: Immunoblotting shows a protein as a band on a membrane.

The target of assay [2] is T2, p38 MAPK, active phosphomimetic mutant (Homo sapiens, UniProt Q16539, D176A).
T2 construct: gene MAPK14; p38 active form expressed in HEK293T cells
Put plainly: degradation of expressed mutant in HEK293T cells (immunoblot). The format is cell-based.

T2 sequence (Q16539 2-360 D176A): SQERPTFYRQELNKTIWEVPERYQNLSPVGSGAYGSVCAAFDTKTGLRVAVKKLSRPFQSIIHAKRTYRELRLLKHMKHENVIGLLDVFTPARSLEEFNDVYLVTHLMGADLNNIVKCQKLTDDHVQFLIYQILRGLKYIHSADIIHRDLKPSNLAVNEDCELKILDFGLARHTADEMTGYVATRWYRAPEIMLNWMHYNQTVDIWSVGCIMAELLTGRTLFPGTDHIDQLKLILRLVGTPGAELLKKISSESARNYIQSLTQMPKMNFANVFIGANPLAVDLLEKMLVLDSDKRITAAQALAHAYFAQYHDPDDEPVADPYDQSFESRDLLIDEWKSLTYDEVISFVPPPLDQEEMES
T1 sequence (Q16539 2-360): as the sequence (Q16539 2-360 D176A) above, with A175D counted along it
T1 sequence (Q96SW2 whole entry partner): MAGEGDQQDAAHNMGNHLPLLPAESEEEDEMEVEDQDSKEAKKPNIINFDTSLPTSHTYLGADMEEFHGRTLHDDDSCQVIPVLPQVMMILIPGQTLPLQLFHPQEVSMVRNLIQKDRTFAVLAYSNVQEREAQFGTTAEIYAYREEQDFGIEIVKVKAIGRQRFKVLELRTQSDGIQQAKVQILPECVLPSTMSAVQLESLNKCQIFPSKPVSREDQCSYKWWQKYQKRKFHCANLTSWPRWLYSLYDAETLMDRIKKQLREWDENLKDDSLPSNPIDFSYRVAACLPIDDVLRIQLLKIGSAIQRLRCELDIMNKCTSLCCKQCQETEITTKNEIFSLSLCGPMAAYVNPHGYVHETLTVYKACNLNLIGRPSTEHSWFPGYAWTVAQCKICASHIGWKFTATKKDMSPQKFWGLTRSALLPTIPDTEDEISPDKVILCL

In assay [1], `Cc1ccc(C(=O)NC2CC2)cc1-c1ccc(C(=O)c2ccc(OCCOCCOC(=O)Nc3cccc4c3C(=O)N(C3CCC(=O)NC3=O)C4=O)cc2)cc1` (centres unmarked) [compound 2, PRZ-18002] came in with a half-maximal degradation concentration (DC50) of 93 nM. The “degradation of expressed mutant in HEK293T cells (immunoblot)” value in assay [2] was “significant reduction of active p38 mutant (D176A) in preference to wild-type p38”.
